Source: PMC9692523, “Exposure to (Poly)phenol Metabolites after a Fruit and Vegetable Supplement Intake: A Double-Blind, Cross-Over, Randomized Trial” (Nutrients, 2022)

Key:
[1] = Plasma pharmacokinetics of phenolic metabolites after one 450 mg capsule of the supplement (UHPLC-ESI-MS/MS); format: in vivo, human; details: for Cmax / Tmax / Tpres (time of presence of metabolites in circulation): n = 10, mean ± SEM; for Tpres (time of presence of metabolites in circulation): interval between first and last appearance; for AUC0-24: supplemented volunteers (n = 10), 450 mg capsule, mean ± SEM
Procedure: (§1) This study was designed as a 3-week randomized, double-blind, cross-over clinical trial. Eligible participants were randomized using simple block randomization of 1:1. Once enrolled, subjects received either one 450 mg capsule of the test supplement or one 450 mg capsule of placebo on the first day of the study (Phase I: D1). After three days of sampling, volunteers started a wash-out period of 1 week and were then enrolled for the second test Phase with ingestion of the opposite supplement (Phase II: D1) (Figure 1). The placebo product was 100% maltodextrin, which was (poly)phenol-free.
On the day of the test (D1), volunteers visited the Research Center after an overnight fast. Blood was collected at T0 to determine baseline levels of plasma phenolic metabolites. Then, volunteers were invited to take the 450 mg capsule of the supplement or the placebo with 250 mL of still water (Figure 2). Additional blood samples were then collected at 1 h (D1, T1), 2 h (D1, T2), 3 h (D1, T3), 4 h (D1, T4), 5 h (D1, T5), 6 h (D1, T6), 8 h (D1, T8), 10 h (D1, T10) and 24 h (D2, T24) after capsule intake. Blood was taken from the basilica vein and centrifuged at 3000 rpm for 10 min at 4 °C. Plasma was immediately extracted and frozen at −80 °C for further analysis.
Plasma samples were then extracted using a solid phase extraction (SPE) method, as previously reported by Castello and colleagues. Briefly, 350 µL of plasma samples was diluted (1:1) with phosphoric acid 4% (v/v). After plate activation, 600 µL of the diluted plasma samples was loaded on a 96 well µ-SPE HLB (Oasis® HLB µElution Plate 30 µm, Waters, Milford, Massachusetts, MA, USA). Samples were washed with 200 µL of water and 200 µL of 0.2% (v/v) acetic acid. Finally, samples were eluted with 60 µL of methanol for UHPLC-ESI-MS/MS analysis.
(§2) Plasma and urine samples were analyzed by a UHPLC DIONEX Ultimate 3000 equipped with a triple quadrupole TSQ Vantage (Thermo Fisher Scientific Inc) fitted with a heated ESI (H-ESI) (Thermo Fisher Scientific Inc) probe, as previously reported. Separations were carried out by means of a Kinetex EVO C18 (100 × 2.1 mm) column, 2.6 µm particle size (Phenomenex, Torrance, CA, USA), installed with a pre-column (Phenomenex). Mobile phase A was 0.2% formic acid in water, and mobile phase B was acetonitrile containing 0.2% formic acid. The gradient started with 5% B, and isocratic conditions were maintained for 0.5 min, reaching 95% B after 6.5 min, followed by 1 min at 95%. The starting gradient was then immediately re-established and maintained for 5 min to re-equilibrate the column. The flow rate was 0.4 mL/min, the injection volume was 5 µL and the column temperature was set at 40 °C.
(§3) The applied MS method consisted of the selective determination of each target precursor ion by the acquisition of characteristic product ion in selective reaction monitoring (SRM) mode (Supplemental Table S2). For all the analyses, the spray voltage was set at 3 kV, the vaporizer temperature at 300 °C and the capillary temperature operated at 270 °C. The sheath gas flow was 50 units, and auxiliary gas pressure was set to 10 units. Ultra-high purity argon gas was used for collision-induced dissociation (CID). The S-lens values were defined for each compound based on infusion parameter optimization. Conversely, for those compounds not available for infusion, the S-lens values were set using the values obtained for the chemically closest available standards. Quantification was performed with calibration curves of standards when available or using the most structurally similar compound. Data processing was performed using Xcalibur software (Thermo Scientific Inc., San Jose, CA, USA).
All data were expressed as mean values ± standard deviation (SD) and mean values ± standard error to the mean (SEM) for metabolites in blood and urine samples. […]

[2] = Urinary excretion of phenolic metabolites over 48 h after one 450 mg capsule of the supplement (UHPLC-ESI-MS/MS); format: in vivo, human; details: for Urinary excretion 0 (h) / Urinary excretion 0–3 (h) / Urinary excretion 3–6 (h) / Urinary excretion 6–10 (h) / Urinary excretion 10–14 (h) / Urinary excretion 14–24 (h) / Urinary excretion 24–32 (h) / Urinary excretion 32–48 (h) / Urinary excretion Total (0–48 h): urine, n = 10, mean ± SEM; for Urinary excretion 0 (h): baseline (day before)
Procedure: as §1
Urine samples were collected the day before (baseline) and during the 48 h period following the supplementation (T0-T3, T3-T6, T6-T10, T10-T14, T14-T24, T24-T32 and T32-T48) (Figure 2). Urine volumes at each collection period were registered, and samples were aliquoted and stored at −80 °C until further processing.
Then, urine samples were prepared as previously reported by Brindani and colleagues. Briefly, urine samples were defrosted, vortexed, diluted in 0.1% formic acid in water (1:4, v/v) and centrifuged at 12,000 rpm for 5 min. Finally, urine samples were filtered (0.45 µm nylon filter) prior to UHPLC-ESI-MS/MS analysis.
as §2, §3
All data were expressed as mean values ± standard deviation (SD) and mean values ± standard error to the mean (SEM) for metabolites in blood and urine samples. PKSolver add-on program in Microsoft Excel was used to determine pharmacokinetic parameters of blood phenolic metabolites, including time to reach the maximum plasma concentration (Tmax, h), maximum plasma concentration (Cmax, nmol/L), area under the curve (AUC0-24, nmol/L·h), and time of presence of metabolites in circulation (Tpres, h). Tpres was calculated by taking the time interval between the first appearance and the last appearance of the considered metabolite. Coefficient of variation (CV) was evaluated for each metabolite and multivariate principal component analysis (PCA) was applied to explore the inter-individual variation in the urinary metabolites among the participants. […]

O=C1CCC(Cc2cccc(OS(=O)(=O)O)c2)O1 (centres unmarked) [compound 23]
Cmax [1]: 2.15 ± 0.48 nM
Tmax [1]: 8.22 ± 2.13 h
Tpres (time of presence of metabolites in circulation) [1]: 9.33 ± 2.45 h
AUC0-24 [1]: 0.01011 ± 0.00389 µM·h
Urinary excretion 0 (h) [2]: 41.07 ± 30.35 µg
Urinary excretion 0–3 (h) [2]: 4.29 ± 2.19 µg
Urinary excretion 3–6 (h) [2]: 52.98 ± 22.54 µg
Urinary excretion 6–10 (h) [2]: 175.24 ± 98.80 µg
Urinary excretion 10–14 (h) [2]: 76.01 ± 39.48 µg
Urinary excretion 14–24 (h) [2]: 345.14 ± 198.47 µg
Urinary excretion 24–32 (h) [2]: 100.92 ± 46.88 µg
Urinary excretion 32–48 (h) [2]: 34.61 ± 16.03 µg
Urinary excretion Total (0–48 h) [2]: 830.26 ± 275.43 µg

O=C(O)C1OC(Oc2cc(CCO)ccc2O)C(O)C(O)C1O (centres unmarked) [compound 33]
Cmax [1]: 24.9 ± 5.63 nM
Tmax [1]: 1.45 ± 0.32 h
Tpres (time of presence of metabolites in circulation) [1]: 8.45 ± 2.19 h
AUC0-24 [1]: 0.05092 ± 0.00585 µM·h
Time of maximum (peak) urinary excretion ([2]; collection interval post-consumption): 3 to 6 h
Urinary excretion 0–3 (h) [2]: 53.75 ± 15.51 µg
Urinary excretion 3–6 (h) [2]: 69.04 ± 13.20 µg
Urinary excretion 6–10 (h) [2]: 38.02 ± 8.17 µg
Urinary excretion 10–14 (h) [2]: 10.90 ± 3.90 µg
Urinary excretion 14–24 (h) [2]: 10.23 ± 3.71 µg
Urinary excretion 24–32 (h) [2]: 0.75 ± 0.75 µg
Urinary excretion Total (0–48 h) [2]: 182.69 ± 19.99 µg

O=C1CCC(Cc2cc(O)cc(OS(=O)(=O)O)c2)O1 (centres unmarked) [compound 16]
Cmax [1]: 9.97 ± 4.31 nM
Tmax [1]: 8.88 ± 2.41 h
Tpres (time of presence of metabolites in circulation) [1]: 10.57 ± 2.72 h
AUC0-24 [1]: 0.03046 ± 0.01185 µM·h
Urinary excretion 0 (h) [2]: 18.25 ± 10.84 µg
Urinary excretion 0–3 (h) [2]: 4.64 ± 3.47 µg
Urinary excretion 3–6 (h) [2]: 439.69 ± 219.42 µg
Urinary excretion 6–10 (h) [2]: 1256.55 ± 516.93 µg
Urinary excretion 10–14 (h) [2]: 944.18 ± 474.02 µg
Urinary excretion 14–24 (h) [2]: 3986.28 ± 711.64 µg
Urinary excretion 24–32 (h) [2]: 1721.60 ± 393.97 µg
Urinary excretion 32–48 (h) [2]: 586.15 ± 240.93 µg
Urinary excretion Total (0–48 h) [2]: 8957.33 ± 1361.49 µg
